According to ChEMBL document CHEMBL1121413, “Synthesis, beta-adrenergic activity, and platelet antiaggregatory activity of a positional isomer of trimetoquinol: 1-(2',4',5'-trimethoxybenzyl)-6,7-dihydroxy-1,2,3,4,-tetrahydroisoquinoline” (J Med Chem, 1980):

Assays:
[1] = molecular target: T1, Adrenergic receptor beta (Homo sapiens) (UniProt P08588+P07550+P13945); conditions: Cavia porcellus
Description: Tested for potent Beta adrenergic receptor action in the atria of guinea pig

[2] = molecular target: T1, Adrenergic receptor beta (Homo sapiens); conditions: Cavia porcellus; remark: listed apart in the source

- pD2 [1]: 8.8
- pD2 [2]: 7.8
Structure (SMILES): COc1cc(CC2NCCc3cc(O)c(O)cc32)cc(OC)c1OC (configuration not stated)
